Test system: Bovine cardiac myofibrils
Test: In vitro model of dose-dependent myofibril ATPase modulation (AC1.4, pyruvate kinase/lactate dehydrogenase-coupled ATPase assay at pCa25)
Assay type: biochemical
Settings: concentration at which ATPase activity was 1.4-fold higher than the bottom of the dose curve, mean of a minimum of two independent tests
How it was run: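 Absorbance at 340 nm tracked ATP hydrolysis through pyruvate kinase/lactate dehydrogenase coupling (0.5 mM NADH, 1.5 mM PEP). Myofibrils from detergent-homogenized bovine heart, 1 mM ATP, pH 6.80, EGTA/CaCl2 buffering. Dose-response curves fitted with a four-parameter Hill equation.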

N#CC1CN(S(=O)(=O)N2CCC[C@H](C(=O)N3CCOC[C@@H]3C(=O)NCc3ccc(C(F)(F)F)cc3)C2)C1 [Example 109, (3R)-4-(((3S)-1-((3-cyano-1-azetidinyl)sulfonyl)-3-piperidinyl)carbonyl)-N-(4-(trifluoromethyl)benzyl)-3-morpholinecarboxamide]
AC1.4: 0.1712 µM

Cc1ccc([C@@H](C)NC(=O)[C@H]2CCCN2C(=O)[C@H]2CCCN(S(=O)(=O)N3CC(C#N)C3)C2)cc1 [Example 285, 1-(((3S)-1-((3-cyano-1-azetidinyl)sulfonyl)-3-piperidinyl)carbonyl)-N-((1R)-1-(4-methylphenyl)ethyl)-D-prolinamide]
AC1.4: 0.7351 µM

CC(C)(C(N)=O)c1cccc(C(=O)N2[C@@H](C(=O)N[C@@H](c3cc(F)c(Cl)cc3F)C3COC3)C[C@H]3C[C@H]32)c1 [Example 263, (1R,3R,5R)-2-(3-(1-amino-2-methyl-1-oxo-2-propanyl)benzoyl)-N-((R)-(4-chloro-2,5-difluorophenyl)(3-oxetanyl)methyl)-2-azabicyclo[3.1.0]hexane-3-carboxamide]
AC1.4: 0.6526 µM

Cc1ccc(C(F)(F)F)c(CNC(=O)[C@H]2CCCN2C(=O)[C@H]2CCCN(S(=O)(=O)N3CC(C#N)C3)C2)c1 [Example 741, 1-(((3S)-1-((3-cyano-1-azetidinyl)sulfonyl)-3-piperidinyl)carbonyl)-N-(5-methyl-2-(trifluoromethyl)benzyl)-D-prolinamide]
AC1.4: 7.1615 µM

N#CC1CN(S(=O)(=O)N2CCC[C@H](C(=O)N3CCC[C@@H]3C(=O)NCc3cc(F)cc(F)c3F)C2)C1 [Example 356, 1-(((3S)-1-((3-cyano-1-azetidinyl)sulfonyl)-3-piperidinyl)carbonyl)-N-(2,3,5-trifluorobenzyl)-D-prolinamide]
AC1.4: 1.0535 µM

C[C@H](C(=O)NCc1ccc(Cl)cc1)N(C)C(=O)c1cccc(S(=O)(=O)N2CC(C#N)C2)c1 [Example 337, N-((1R)-2-((4-chlorobenzyl)amino)-1-methyl-2-oxoethyl)-3-((3-cyano-1-azetidinyl)sulfonyl)-N-methylbenzamide]
AC1.4: 0.9477 µM

Cc1c(Cl)cccc1CNC(=O)[C@H]1CCCN1C(=O)[C@H]1CCCN(S(=O)(=O)N2CC(C#N)C2)C1 [Example 152, N-(3-chloro-2-methylbenzyl)-1-(((3S)-1-((3-cyano-1-azetidinyl)sulfonyl)-3-piperidinyl)carbonyl)-D-prolinamide]
AC1.4: 0.2624 µM

CC(=O)N1CC(NS(=O)(=O)N2CCC[C@H](C(=O)N3CCC[C@@H]3C(=O)NCc3ccc(C(F)(F)F)cc3)C2)C1 [Example 806, 1-(((3S)-1-((l-acetyl-3-azetidinyl)sulfamoyl)-3-piperidinyl)carbonyl)-N-(4-(trifluoromethyl)benzyl)-D-prolinamide]
AC1.4: 10 µM

CC(=O)N1CC(F)(c2cccc(C(=O)N3CCC[C@@H]3C(=O)N[C@@H](c3ccc(C(F)(F)F)cc3F)C3CC3)c2)C1 [Example 796, 1-(3-(l-acetyl-3-fluoro-3-azetidinyl)benzoyl)-N-((R)-cyclopropyl(2-fluoro-4-(trifluoromethyl)phenyl)methyl)-D-prolinamide]
AC1.4: 9.426 µM

CS(=O)(=O)c1cccc(C(=O)N2CCOC[C@@H]2C(=O)N[C@@H](c2ccc(C(F)(F)F)cc2F)C2CC2)c1 [Example 576, (3R)-N-((R)-cyclopropyl(2-fluoro-4-(trifluoromethyl)phenyl)methyl)-4-(3-(methylsulfonyl)benzoyl)-3-morpholinecarboxamide]
AC1.4: 2.838 µM

C[C@H](C(=O)NCc1ccnc(C(F)(F)F)c1)N(C)C(=O)c1cccc(S(=O)(=O)N2CC(C#N)C2)c1 [Example 722, 3-((3-cyano-1-azetidinyl)sulfonyl)-N-methyl-N-((1R)-1-methyl-2-oxo-2-(((2-(trifluoromethyl)-4-pyridinyl)methyl)amino)ethyl)benzamide]
AC1.4: 6.3585 µM

N#CC1CN(S(=O)(=O)N2CCC[C@H](C(=O)N3CCC[C@@H]3C(=O)NCc3ccccc3Cl)C2)C1 [Example 574, N-(2-chlorobenzyl)-1-(((3S)-1-((3-cyano-1-azetidinyl)sulfonyl)-3-piperidinyl)carbonyl)-D-prolinamide]
AC1.4: 3.2325 µM

Cc1cccc(C(=O)N2CCC[C@@H]2C(=O)N[C@@H](c2ccc(C(F)(F)F)cc2F)C2CC2)c1 [Example 715, N-((R)-cyclopropyl(2-fluoro-4-(trifluoromethyl)phenyl)methyl)-1-(3-methylbenzoyl)-D-prolinamide]
AC1.4: 6.057 µM

COc1cc(CNC(=O)[C@H]2CCCN2C(=O)[C@H]2CCCN(S(=O)(=O)N3CC(C#N)C3)C2)ccc1C [Example 387, 1-(((3S)-1-((3-cyano-1-azetidinyl)sulfonyl)-3-piperidinyl)carbonyl)-N-(3-methoxy-4-methylbenzyl)-D-prolinamide]
AC1.4: 1.34 µM

CN(C)S(=O)(=O)c1cccc(C(=O)N2CCC[C@@H]2C(=O)N[C@H](CO)c2ccc(C(F)(F)F)cc2)c1 [Example 678, 1-(3-(dimethylsulfamoyl)benzoyl)-N-((1S)-2-hydroxy-1-(4-(trifluoromethyl)phenyl)ethyl)-D-prolinamide]
AC1.4: 4.993 µM

CC(O)(c1cccc(C(=O)N2CCCC[C@@H]2C(=O)N[C@@H](c2ccc(C(F)(F)F)cc2F)C2CC2)c1)C(F)(F)F (stereo partly drawn) [Example 208, (2R)-N-((R)-cyclopropyl(2-fluoro-4-(trifluoromethyl)phenyl)methyl)-1-(3-(-1,1,1-trifluoro-2-hydroxy-2-propanyl)benzoyl)-2-piperidinecarboxamide]
AC1.4: 0.4457 µM

O=C(N[C@@H](c1cc(F)c(Cl)cc1F)C1CC1)[C@H]1C[C@H]2C[C@H]2N1C(=O)c1cncc(S(=O)(=O)C2CC2)c1 [Example 163, (1R,3R,5R)-N-((R)-(4-chloro-2,5-difluorophenyl)(cyclopropyl)methyl)-2-((5-(cyclopropylsulfonyl)-3-pyridinyl)carbonyl)-2-azabicyclo[3.1.0]hexane-3-carboxamide]
AC1.4: 0.2773 µM

CS(=O)(=O)c1cccc(C(=O)N2CCC[C@@H]2C(=O)N[C@@H](c2ccc(Cl)c(F)c2)C2CC2)c1 [Example 426, N-((R)-(4-chloro-3-fluorophenyl)(cyclopropyl)methyl)-1-(3-(methylsulfonyl)benzoyl)-D-prolinamide]
AC1.4: 1.4595 µM

N#CC1CN(S(=O)(=O)N2CCC[C@H](C(=O)N3CCC[C@@H]3C(=O)NCc3cccc(C(F)(F)F)c3)C2)C1 [Example 353, 1-(((3S)-1-((3-cyano-1-azetidinyl)sulfonyl)-3-piperidinyl)carbonyl)-N-(3-(trifluoromethyl)benzyl)-D-prolinamide]
AC1.4: 1.0398 µM

CS(=O)(=O)c1cc(C(=O)N2C[C@@H](F)C[C@@H]2C(=O)N[C@@H](c2cc(F)c(Cl)cc2F)C2CC2)ccn1 [Example 510, (4S)-N-((R)-(4-chloro-2,5-difluorophenyl)(cyclopropyl)methyl)-4-fluoro-1-((2-(methylsulfonyl)-4-pyridinyl)carbonyl)-D-prolinamide]
AC1.4: 2.2505 µM

Cc1cc(CNC(=O)[C@H]2CCCN2C(=O)[C@H]2CCCN(S(=O)(=O)N3CC(C#N)C3)C2)ccc1Cl [Example 137, N-(4-chloro-3-methylbenzyl)-1-(((3S)-1-((3-cyano-1-azetidinyl)sulfonyl)-3-piperidinyl)carbonyl)-D-prolinamide]
AC1.4: 0.2267 µM

Reference: patent US11780826B2 (Amgen Inc., priority 2017, dated 2023)
